Assay results from the supplement of paper PMC10307832.

Experiments:
Assay in all cases: relative viability (nuclei count vs DMSO), 5 days (fraction); higher = more cells survive
Ponatinib + Lapatinib = compound: Cc1ccc(C(=O)Nc2ccc(CN3CCN(C)CC3)c(C(F)(F)F)c2)cc1C#Cc1cnc2cccnn12 [Ponatinib] + CS(=O)(=O)CCNCc1ccc(-c2ccc3ncnc(Nc4ccc(OCc5cccc(F)c5)c(Cl)c4)c3c2)o1 [Lapatinib] (partner 2 µM)
Outline: (§1)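 Medians of duplicate plates are given as relative viability. That measure is the nuclei count in treated wells divided by the count in vehicle wells. Counts were taken on 4× images of lung cancer cell lines in 1536-well plates, 5 days after pin-tool dosing the day after seeding with one drug alone or a fixed anchor-drug dose plus five library-drug doses (not always all listed) in √10 steps.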

Ponatinib + Pictilisib = compound: Cc1ccc(C(=O)Nc2ccc(CN3CCN(C)CC3)c(C(F)(F)F)c2)cc1C#Cc1cnc2cccnn12 [Ponatinib] + CS(=O)(=O)N1CCN(Cc2cc3nc(-c4cccc5[nH]ncc45)nc(N4CCOCC4)c3s2)CC1 [Pictilisib] (partner 1 µM)
Outline: as §1

Pazopanib + Lapatinib = compound: Cc1ccc(Nc2nccc(N(C)c3ccc4c(C)n(C)nc4c3)n2)cc1S(N)(=O)=O [Pazopanib] + CS(=O)(=O)CCNCc1ccc(-c2ccc3ncnc(Nc4ccc(OCc5cccc(F)c5)c(Cl)c4)c3c2)o1 [Lapatinib] (partner 2 µM)
Outline: as §1

Pazopanib + Alpelisib = compound: Cc1ccc(Nc2nccc(N(C)c3ccc4c(C)n(C)nc4c3)n2)cc1S(N)(=O)=O [Pazopanib] + Cc1nc(NC(=O)N2CCC[C@H]2C(N)=O)sc1-c1ccnc(C(C)(C)C(F)(F)F)c1 [Alpelisib] (partner 2 µM)
Outline: as §1

Row | Cell Line | relative viability (Ponatinib + Lapatinib; first compound 0.002 µM) | relative viability (Ponatinib + Lapatinib; first compound 0.006325 µM) | relative viability (Ponatinib + Lapatinib; first compound 0.06325 µM) | relative viability (Ponatinib + Lapatinib; first compound 0.2 µM) | relative viability (Ponatinib + Pictilisib; first compound 0.002 µM) | relative viability (Ponatinib + Pictilisib; first compound 0.006325 µM) | relative viability (Ponatinib + Pictilisib; first compound 0.06325 µM) | relative viability (Ponatinib + Pictilisib; first compound 0.2 µM) | relative viability (Pazopanib + Lapatinib; first compound 0.01 µM) | relative viability (Pazopanib + Lapatinib; first compound 0.03162 µM) | relative viability (Pazopanib + Lapatinib; first compound 0.1 µM) | relative viability (Pazopanib + Lapatinib; first compound 0.3162 µM) | relative viability (Pazopanib + Lapatinib; first compound 1 µM) | relative viability (Pazopanib + Alpelisib; first compound 0.01 µM) | relative viability (Pazopanib + Alpelisib; first compound 0.03162 µM) | relative viability (Pazopanib + Alpelisib; first compound 0.1 µM) | relative viability (Pazopanib + Alpelisib; first compound 0.3162 µM) | relative viability (Pazopanib + Alpelisib; first compound 1 µM)
1 | 201T | 1.04 | 1.03 | 1.09 | 1.02 | 0.649 | 0.685 | 0.801 | 0.725 | 0.971 | 0.998 | 1.04 | 1.04 | 1.06 | 0.959 | 1.06 | 1.02 | 0.998 | 1.05
2 | NCI-H2126 | 0.729 | 0.766 | 0.888 | 0.718 | 0.513 | 0.504 | 0.587 | 0.617 | 0.611 | 0.713 | 0.81 | 0.715 | 0.821 | 0.65 | 0.751 | 0.821 | 0.811 | 0.806
3 | HOP-62 | 0.929 | 0.987 | 0.856 | 0.91 | 0.878 | 0.609 | 0.75 | 0.665 | 1.04 | 1.01 | – | 0.99 | 1.04 | 0.68 | 1 | – | 1.23 | 1.07
4 | CAL-12T | 0.702 | 0.714 | 1 | 0.698 | 0.425 | 0.464 | 0.515 | 0.432 | 0.483 | 0.669 | 0.69 | 0.733 | 0.816 | 1.21 | 1.32 | 1.11 | 1.35 | 1.27
5 | NCI-H596 | 1.09 | 0.898 | 0.905 | 0.748 | 0.354 | 0.401 | 0.36 | 0.374 | 0.931 | 1.03 | 1.03 | 0.981 | 1.17 | 0.473 | 0.479 | 0.487 | 0.457 | 0.513
6 | NCI-H1755 | 0.977 | 1.08 | 1.06 | 0.943 | 0.502 | 0.535 | 0.505 | 0.391 | 0.943 | 0.993 | 1.02 | 1.02 | 1.02 | 0.814 | 0.906 | 0.917 | 0.93 | 0.914
7 | NCI-H2023 | 0.81 | 0.861 | 0.958 | 0.642 | 0.261 | 0.292 | 0.298 | 0.212 | 0.509 | 0.806 | 0.73 | 0.791 | 1.35 | 0.58 | 0.567 | 0.62 | 0.57 | 0.591
8 | NCI-H2009 | 0.865 | 0.887 | 1.08 | 0.946 | 0.755 | 0.838 | 0.794 | 0.625 | 0.961 | 0.946 | 0.796 | 0.883 | 0.838 | 1.08 | 1.19 | 1.26 | 1.09 | 1
